Reference: patent publication US10023570B2 (Array BioPharma, Inc., priority 2015, dated 2018)

These molecules were tested against human KDR protein in HEK-293 cells (Homo sapiens (Human), UniProt P35968) (assay: KDR Cell Assay (phospho-KDR in HEK-293 cells expressing inducible KDR)). Conditions: pKDR Cell HEK 10% FBS IC50, HEK-293 cells expressing inducible KDR, VEGF stimulated.
Assay type: cell-based
Outline: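 HEK-293 cells with inducible human KDR were treated with compound for 1 h in DMEM (0.25% DMSO final), then lysed. Phospho-KDR was quantified by Meso Scale immunoassay, expressed as percent of control, and IC50 taken where a 4-parameter logistic fit crossed 50 POC.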

Sequence of human KDR protein in HEK-293 cells (P35968 20-1356): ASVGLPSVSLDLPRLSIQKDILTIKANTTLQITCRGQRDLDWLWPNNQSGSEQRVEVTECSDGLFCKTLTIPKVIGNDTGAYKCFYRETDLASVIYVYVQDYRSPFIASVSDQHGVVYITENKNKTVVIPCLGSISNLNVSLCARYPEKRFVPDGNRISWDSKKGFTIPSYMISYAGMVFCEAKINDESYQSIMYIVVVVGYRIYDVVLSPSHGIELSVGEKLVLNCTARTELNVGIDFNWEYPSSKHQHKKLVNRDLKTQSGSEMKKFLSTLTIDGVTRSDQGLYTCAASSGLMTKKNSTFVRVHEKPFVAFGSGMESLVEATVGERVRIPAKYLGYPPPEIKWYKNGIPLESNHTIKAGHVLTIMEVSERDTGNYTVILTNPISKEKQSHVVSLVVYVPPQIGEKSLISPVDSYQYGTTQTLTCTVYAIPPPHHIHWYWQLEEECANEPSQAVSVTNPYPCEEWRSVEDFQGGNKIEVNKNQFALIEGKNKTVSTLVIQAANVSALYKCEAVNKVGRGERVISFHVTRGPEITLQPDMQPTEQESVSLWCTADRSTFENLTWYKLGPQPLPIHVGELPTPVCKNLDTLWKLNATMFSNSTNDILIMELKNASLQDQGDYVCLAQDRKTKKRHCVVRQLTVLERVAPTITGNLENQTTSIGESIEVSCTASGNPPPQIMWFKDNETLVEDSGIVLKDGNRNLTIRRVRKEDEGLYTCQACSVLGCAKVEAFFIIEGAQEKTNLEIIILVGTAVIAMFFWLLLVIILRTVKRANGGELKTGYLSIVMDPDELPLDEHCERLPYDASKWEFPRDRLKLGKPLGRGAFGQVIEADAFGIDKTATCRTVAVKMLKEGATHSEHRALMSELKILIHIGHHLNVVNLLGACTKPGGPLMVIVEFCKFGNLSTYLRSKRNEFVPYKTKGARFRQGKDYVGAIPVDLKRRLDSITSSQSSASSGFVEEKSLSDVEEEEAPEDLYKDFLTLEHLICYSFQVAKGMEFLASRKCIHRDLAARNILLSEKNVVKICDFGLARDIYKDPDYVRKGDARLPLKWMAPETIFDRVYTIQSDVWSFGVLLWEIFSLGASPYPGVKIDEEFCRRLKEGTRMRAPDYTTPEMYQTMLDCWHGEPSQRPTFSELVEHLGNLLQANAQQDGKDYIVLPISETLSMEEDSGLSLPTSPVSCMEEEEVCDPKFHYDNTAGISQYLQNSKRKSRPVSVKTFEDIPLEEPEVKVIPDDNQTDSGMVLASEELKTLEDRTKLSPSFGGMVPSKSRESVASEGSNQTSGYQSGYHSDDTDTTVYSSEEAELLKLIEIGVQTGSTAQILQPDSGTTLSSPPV

Row | Structure (SMILES) | IC50 [nM]
1 | Cn1cc(-c2cc(-c3ccc(N4CC5(CCCN5C(=O)OCc5ccccc5)C4)nc3)c3c(C#N)cnn3c2)cn1 [Example 525, benzyl 2-(5-(3-cyano-6-(1-methyl-1H-pyrazol-4-yl)pyrazolo[1,5-a]pyridin-4-yl)pyridin-2-yl)-2,5-diazaspiro[3.4]octane-5-carboxylate 2,2,2-trifluoroacetate] | 1580
2 | CN(C)C(=O)N1CC2(CCN(c3ccc(-c4cc(-c5cnn(C)c5)cn5ncc(C#N)c45)cn3)CC2)C1 [Example 501, 7-(5-(3-cyano-6-(1-methyl-1H-pyrazol-4-yl)pyrazolo[1,5-a]pyridin-4-yl)pyridin-2-yl)-N,N-dimethyl-2,7-diazaspiro[3.5]nonane-2-carboxamide] | 554
3 | Cn1cc(-c2cc(-c3ccc(N4CCN(Cc5ccc(Cl)cc5)CC4)nc3)c3c(C#N)cnn3c2)cn1 [Example 425, 4-(6-(4-(4-chlorobenzyl)piperazin-l-yl)pyridin-3-yl)-6-(1-methyl-1H-pyrazol-4-yl)pyrazolo[1,5-a]pyridine-3-carbonitrile] | 916
4 | CC(C)N1CCN(c2ccc(-c3cc(-c4cnn(C)c4)cn4ncc(C#N)c34)cn2)CC1 [Example 410, 4-(6-(4-isopropylpiperazin-1-yl)pyridin-3-yl)-6-(1-methyl-1H-pyrazol-4-yl)pyrazolo[1,5-a]pyridine-3-carbonitrile] | 1630
5 | COC1CCN(C(=O)N2CCN(c3ccc(-c4cc(-c5cnn(C)c5)cn5ncc(C#N)c45)cn3)CC2)CC1 [Example 376, 4-(6-(4-(4-methoxypiperidine-1-carbonyl)piperazin-1-yl)pyridin-3-yl)-6-(1-methyl-1H-pyrazol-4-yl)pyrazolo[1,5-a]pyridine-3-carbonitrile] | 1830
6 | Cn1cc(-c2cc(-c3ccc(N4CCC5(CC4)CN(C(=O)OC4CCCC4)C5)nc3)c3c(C#N)cnn3c2)cn1 [Example 499, Cyclopentyl 7-(5-(3-cyano-6-(1-methyl-1H-pyrazol-4-yl)pyrazolo[1,5-a]pyridin-4-yl)pyridine-2-yl)-2,7-diazaspiro[3.5]nonane-2-carboxylate] | 462
7 | Cn1cc(-c2cc(-c3ccc(N4CCN(Cc5ccc(F)cc5F)CC4)nc3)c3c(C#N)cnn3c2)cn1 [Example 426, 4-(6-(4-(2,4-difluorobenzyl)piperazin-1-yl)pyridin-3-yl)-6-(1-methyl-1H-pyrazol-4-yl)pyrazolo[1,5-a]pyridine-3-carbonitrile] | 1250
8 | COc1ncc(C(=O)N2C3CC2CN(c2ccc(-c4cc(-c5cnn(C)c5)cn5ncc(C#N)c45)cn2)C3)cc1F [Example 688, 4-(6-(6-(5-fluoro-6-methoxynicotinoyl)-3,6-diazabicyclo[3.1.1]heptheptan-3-yl)pyridin-3-yl)-6-(1-methyl-1H-pyrazol-4-yl)pyrazolo[1,5-a]pyridine-3-carbonitrile] | 50.9
9 | Cn1cc(-c2cc(-c3ccc(N4CCN(C(=O)N5CCC(C(F)(F)F)C5)CC4)nc3)c3c(C#N)cnn3c2)cn1 (stereo not drawn) [Example 391, 6-(1-methyl-1H-pyrazol-4-yl)-4-(6-(4-(3-(trifluoromethyl)pyrrolidine-1-carbonyl)piperazin-1-yl)pyridin-3-yl)pyrazolo[1,5-a]pyridine-3-carbonitrile] | 986
10 | Cn1cc(-c2cc(-c3ccc(N4CCN(Cc5cccnc5)CC4)nc3)c3c(C#N)cnn3c2)cn1 [Example 471, 6-(1-methyl-1H-pyrazol-4-yl)-4-(6-(4-(pyridin-3-ylmethyl)piperazin-1-yl)pyridine-3-yl)pyrazolo[1,5-a]pyridine-3-carbonitrile] | 1580
11 | Cn1cc(-c2cc(-c3ccc(N4CCC5(CCN(C(=O)OC(C)(C)C)CC5)C4)nc3)c3c(C#N)cnn3c2)cn1 [Example 517, tert-butyl 2-(5-(3-cyano-6-(1-methyl-1H-pyrazol-4-yl)pyrazolo[1,5-a]pyridin-4-yl)pyridin-2-yl)-2,8-diazaspiro[4.5]decane-8-carboxylate] | 1790
12 | Cn1cc(-c2cc(-c3ccc(N4CCN(Cc5cncc(F)c5)CC4)nc3)c3c(C#N)cnn3c2)cn1 [Example 423, 4-(6-(4-((5-fluoropyridin-3-yl)methyl)piperazin-1-yl)pyridin-3-yl)-6-(1-methyl-1H-pyrazol-4-yl)pyrazolo[1,5-a]pyridine-3-carbonitrile] | 1370
13 | Cn1cc(-c2cc(-c3ccc(N4CCN(Cc5cc(F)ccc5F)CC4)nc3)c3c(C#N)cnn3c2)cn1 [Example 429, 4-(6-(4-(2,5-difluorobenzyl)piperazin-1-yl)pyridin-3-yl)-6-(1-methyl-1H-pyrazol-4-yl)pyrazolo[1,5-a]pyridine-3-carbonitrile] | 1560

Same assay, conditions: pKDR Cell HEK 10% FBS IC50, HEK-293 cells expressing inducible KDR, VEGF stimulated, 10% FBS

Row | Structure (SMILES) | IC50 [nM]
14 | Cn1cc(-c2cc(-c3ccc(N4CCN(C(=O)C5(c6ccccc6)CCOCC5)CC4)nc3)c3c(C#N)cnn3c2)cn1 [Example 342, 6-(1-methyl-1H-pyrazol-4-yl)-4-(6-(4-(4-phenyltetrahydro-2H-pyran-4-carbonyl)piperazin-1-yl)pyridin-3-yl)pyrazolo[1,5-a]pyridine-3-carbonitrile] | 4750
15 | Cn1cc(-c2cc(-c3ccc(N4CCN(C(=O)CC5CC5)CC4)nc3)c3c(C#N)cnn3c2)cn1 [Example 77, 4-(6-(4-(2-cyclopropylacetyl)piperazin-1-yl)pyridin-3-yl)-6-(1-methyl-1H-pyrazol-4-yl)pyrazolo[1,5-a]pyridine-3-carbonitrile] | 605
16 | COC[C@H]1CCCN1C(=O)N1CCN(c2ccc(-c3cc(-c4cnn(C)c4)cn4ncc(C#N)c34)cn2)CC1 [Example 110, (R)-4-(6-(4-(2-(methoxymethyl)pyrrolidine-1-carbonyl)piperazin-1-yl)pyridin-3-yl)-6-(1-methyl-1H-pyrazol-4-yl)pyrazolo[1,5-a]pyridine-3-carbonitrile] | 1310
17 | Cn1cc(-c2cc(-c3ccc(N4CCN(C(=O)C5(c6cnccn6)CC5)CC4)nc3)c3c(C#N)cnn3c2)cn1 [Example 350, 6-(1-methyl-1H-pyrazol-4-yl)-4-(6-(4-(1-(pyrazin-2-yl)cyclopropane-carbonyl)piperazin-1-yl)pyridin-3-yl)pyrazolo[1,5-a]pyridine-3-carbonitrile] | 1860
18 | Cn1cc(-c2cc(-c3ccc(N4CCN(C(=O)C(C)(C)c5ccccc5)CC4)nc3)c3c(C#N)cnn3c2)cn1 [Example 26, 6-(1-methyl-1H-pyrazol-4-yl)-4-(6-(4-(2-methyl-2-phenylpropanoyl)piperazin-1-yl)pyridin-3-yl)pyrazolo[1,5-a]pyridine-3-carbonitrile] | 476
19 | CC(C)[C@@H](O)C(=O)N1CC2(CCN(c3ccc(-c4cc(-c5cnn(C)c5)cn5ncc(C#N)c45)cn3)CC2)C1 [Example 216, (R)-4-(6-(2-(2-hydroxy-3-methylbutanoyl)-2,7-diazaspiro[3.5]nonan-7-yl)pyridin-3-yl)-6-(1-methyl-1H-pyrazol-4-yl)pyrazolo[1,5-a]pyridine-3-carbonitrile] | 574
20 | Cn1cc(-c2cc(-c3ccc(N4CCN(C(=O)Cc5c(F)cccc5F)CC4)nc3)c3c(C#N)cnn3c2)cn1 [Example 39, 4-(6-(4-(2-(2,6-difluorophenyl)acetyl)piperazin-1-yl)pyridin-3-yl)-6-(1-methyl-1H-pyrazol-4-yl)pyrazolo[1,5-a]pyridine-3-carbonitrile 2,2,2-trifluoroacetate] | 83.9
21 | Cn1cc(-c2cc(-c3ccc(N4CCN(C(=O)[C@H](N)c5ccccc5)CC4)nc3)c3c(C#N)cnn3c2)cn1 [Example 48, (R)-4-(6-(4-(2-amino-2-phenylacetyl)piperazin-1-yl)pyridin-3-yl)-6-(1-methyl-1H-pyrazol-4-yl)pyrazolo[1,5-a]pyridine-3-carbonitrile bis(2,2,2-trifluoroacetate)] | 612
22 | CC(C)C(=O)N1CC2(CCN(c3ccc(-c4cc(-c5cnn(C)c5)cn5ncc(C#N)c45)cn3)CC2)C1 [Example 221, 4-(6-(2-isobutyryl-2,7-diazaspiro[3.5]nonan-7-yl)pyridin-3-yl)-6-(1-methyl-1H-pyrazol-4-yl)pyrazolo[1,5-a]pyridine-3-carbonitrile] | 1660
23 | Cn1cc(-c2cc(-c3ccc(N4CCC(NC(=O)c5ccccc5)CC4)nc3)c3c(C#N)cnn3c2)cn1 [Example 184, N-(1-(5-(3-cyano-6-(1-methyl-1H-pyrazol-4-yl)pyrazolo[1,5-a]pyridin-4-yl)pyridin-2-yl)piperidin-4-yl)benzamide] | 75.2
24 | Cn1cc(-c2cc(-c3ccc(N4CCN(C(=O)[C@@H]5CCCO5)CC4)nc3)c3c(C#N)cnn3c2)cn1 [Example 60, (S)-6-(1-methyl-1H-pyrazol-4-yl)-4-(6-(4-(tetrahydrofuran-2-carbonyl)piperazin-1-yl)pyridin-3-yl)pyrazolo[1,5-a]pyridine-3-carbonitrile] | 376
25 | Cn1cc(-c2cc(-c3ccc(N4CCN(C(=O)NC5CCOCC5)CC4)nc3)c3c(C#N)cnn3c2)cn1 [Example 121, 4-(5-(3-cyano-6-(1-methyl-1H-pyrazol-4-yl)pyrazolo[1,5-a]pyridin-4-yl)pyridin-2-yl)-N-(tetrahydro-2H-pyran-4-yl)piperazine-1-carboxamide] | 1340
26 | Cc1nn(C)cc1C(=O)N1CCN(c2ccc(-c3cc(-c4cnn(C)c4)cn4ncc(C#N)c34)cn2)CC1 [Example 41, 4-(6-(4-(1,3-dimethyl-1H-pyrazole-4-carbonyl)piperazin-1-yl)pyridin-3-yl)-6-(1-methyl-1H-pyrazol-4-yl)pyrazolo[1,5-a]pyridine-3-carbonitrile 2,2,2-trifluoroacetate] | 871
27 | Cn1cc(-c2cc(-c3ccc(N4CCN(C(=O)C[C@@H](O)c5ccccc5)CC4)nc3)c3c(C#N)cnn3c2)cn1 [Example 7, (R)-4-(6-(4-(3-hydroxy-3-phenylpropanoyl)piperazin-1-yl)pyridin-3-yl)-6-(1-methyl-1H-pyrazol-4-yl)pyrazolo[1,5-a]pyridine-3-carbonitrile] | 115
